From patent US20090221010A1, “Methods for Prediction and Prognosis of Cancer, and Monitoring Cancer Therapy” (priority 2005, published 2009)

Test system: non-small cell lung cancer
Assay: Tumor shrinkage measured radiologically in non-small cell lung cancer patients treated with Sorafenib
Type: in vivo, human
Conditions: non-small cell lung carcinoma; for mean % change in tumor size: measured radiologically

In the case of `CNC(=O)c1cc(Oc2ccc(NC(=O)Nc3ccc(Cl)c(C(F)(F)F)c3)cc2)ccn1` [Sorafenib], the average tumor shrinkage (patients who showed stable disease, Sorafenib treatment) is reported as 5.1%, the average tumor growth (patients whose disease progressed, Sorafenib treatment) is reported as 20.6% and the “mean % change in tumor size” value (patients with Progressive Disease in spite of Sorafenib treatment) is reported as 20.6%. The “mean % change in tumor size” value (patients with Stable Disease on Sorafenib treatment) was −5.1%.
